31 sequences from the OligoGym collection can be followed below.

After the bases stand the sugars from the 5' end (letter, count) and the backbone: PS all phosphorothioate, else s phosphorothioate and o phosphodiester by linkage. Methylation of C is not given here. e = 2'-O-(2-methoxyethyl) (MOE); k = constrained ethyl (cEt); d = 2'-deoxy (DNA); m = 2'-O-methyl

This data set addresses HSD17B13. The note with it: ASO, HepaRG.

Consider GAGACATGAGGTTTTG (sugars k3 d10 k3, PS), for which the target mRNA inhibition was found to be 0% (0.02 µM); 0% (0.078 µM); 22% (0.313 µM); 77% (1 µM); 65% (1.25 µM); 88% (5 µM).

Consider GATATACTGTCCCAGC (sugars k3 d10 k3, PS), for which, under “1 µM”, the target mRNA inhibition worked out at 34%.

The sequence TAGGATTAATTCCCTT (sugars k3 d10 k3, PS) came in with a target mRNA inhibition (1 µM) of 0%. Still for that read-out and setting: the same measure for “CAAAAGACTTTGAGAC (sugars k3 d1 m1 d8 k3, PS)”: 25%; for GGCTAAACCCTGGAGC (sugars k3 d10 k3, PS): 36%. Still for that read-out and setting: the same measure for TGTTAACCTGCAGCAG (sugars k3 d10 k3, PS): 39%; for ATTCGAAACTATTCAT (sugars k3 d10 k3, PS): 24%; for AGACAATTAACATTCG (sugars k3 d10 k3, PS): 62%. Same read-out and setting: under CACAAGCACACTGTAA (sugars k3 d10 k3, PS) stands 2%. Take AATGTATGAGGTCTCC (sugars k3 d10 k3, PS): for the setting “1 µM”, the target mRNA inhibition was 65%.

GATTGGAATGCTACTT (sugars k3 d10 k3, PS) had a target mRNA inhibition (1 µM) of 58%. Still for that read-out and setting: under “TTATGTGATTGAGTTC (sugars k3 d1 m1 d8 k3, PS)” stands 35%. “TAGTGTAAGCTGAGAG (sugars kkdddddddddkekek, PS)”: the target mRNA inhibition (0.02 µM) came out at 24%; the target mRNA inhibition (0.078 µM) is 25%; the target mRNA inhibition (0.313 µM) came out at 37%; the target mRNA inhibition (1 µM) was 68%; the target mRNA inhibition (1.25 µM) was found to be 51%; the target mRNA inhibition (5 µM) worked out at 81%. Sequence CCATAATCTGTGATTA (sugars k3 d10 k3, PS) gave a target mRNA inhibition (1 µM) of 9%. The same measure, in the same setting: under CTTGAACAGTCTTAAA (sugars k3 d10 k3, PS) stands 39%.

For TGTAAAGGCTGGGTGA (sugars k3 d10 k3, PS), the target mRNA inhibition (1 µM) is 26%. In the case of TGCTGAGAAGATCGGC (sugars k3 d10 k3, PS), the target mRNA inhibition (1 µM) turned out to be 7%.

“CTTCATAGTGGACTTC (sugars kkdddddddddkekek, PS)”: under “1 µM”, the target mRNA inhibition worked out at 45%.

Take GGATACCTGAAAAGCC (sugars k3 d10 k3, PS): the target mRNA inhibition by setting is: (0.02 µM) 2%; (0.078 µM) 0%; (0.313 µM) 38%; (1 µM) 68%; (1.25 µM) 69%; (5 µM) 77%.

GATTAATTCCCTTCCA (sugars k3 d10 k3, PS): the target mRNA inhibition (1 µM) was 30%. Still for that read-out and setting: under ACGGTGATCAAATGTA (sugars k3 d10 k3, PS) stands 53%; under “GTTTUGGGCTAATGAA (sugars k3 d1 m1 d8 k3, PS)”, 30%; under TCTTATTGGTAAGTAT (sugars k3 d10 k3, PS), 25%. On the same count and under the same terms, the same measure for “GTCACCTTTCATAATG (sugars kkdddddddddkekek, PS)”: 4%; for GGGTCCATTGTTTCTT (sugars k3 d10 k3, PS): 21%. On the same count and under the same terms, under GAAATTGATACACCAA (sugars k3 d10 k3, PS) stands 67%; under TAACTCTATTGATTGG (sugars k3 d10 k3, PS), 51%; under GGCCAAGGGAACACTG (sugars k3 d10 k3, PS), 36%. Sequence CAAACTGCTACTGTGT (sugars k3 d10 k3, PS) had a target mRNA inhibition (1 µM) of 57%. The same measure, in the same setting: the same measure for AGAGCCAAACTGCTAC (sugars k3 d10 k3, PS): 55%; for “CAGATTATTATGTGAT (sugars k3 d9 k3 e1, PS)”: 38%.
